Reference: PMC8963105, “A Novel Modulator of the Renin–Angiotensin System, Benzoylaconitine, Attenuates Hypertension by Targeting ACE/ACE2 in Enhancing Vasodilation and Alleviating Vascular Inflammation” (Frontiers in Pharmacology, 2022)

What was measured:
total NO = total NO in serum of SHRs; format: in vivo, rat; conditions: oral 14 days, dose-dependent
Description: (§1) All three MDAs (BAC, BMC, and BHC) were purchased from Nature-Standard Co., Ltd. (Shanghai, China) and their purities were all over 98%. The anti-hypertensive effects of MDAs were studied in both acute and chronic experiments. The 16-week-old SHRs were used in animal experiments, and each group had six rats. In the acute experiment, drug administration was via i.v. injection. For i.v. injection, the animals were randomly assigned into four groups: vehicle (0.1% DMSO–0.9% salt solution, n = 6), low-dose group (0.6 mg kg^−1 body weight, n = 6), medium-dose group (2 mg kg^−1 body weight, n = 6), and high-dose group (6 mg kg^−1 body weight, n = 6). The drug was administered using a venous catheter. […] Blood pressure was recorded in real time.
Total NO levels in serum obtained from SHRs treated with vehicle, BAC, or captopril for 14 days were quantified by using total nitric oxide assay kit (Beyotime, Shanghai, China) as described previously. The absorbance was measured using a microplate reader (Thermo Fisher Scientific) at 540 nm and calculated according to the standard curve. […]

ACE = experiment: serum ACE by ELISA in SHRs after 14-day oral administration; format: in vivo, rat; conditions: oral 14 days
Description: as §1
Blood samples were collected from the left femoral artery of rats at the end point, followed by centrifugation at 1,000 × g for 15 min at 4°C. […] The concentrations of circulating ACE, ACE2, Ang I, Ang II, Ang (1–7), TNF-α, and IL-6 in serum were measured using the ELISA kits [ACE, cat#xy-R2401c, X-Y Biotechnology, Shanghai, China; ACE2, cat#xy-ACE2-Ra, X-Y Biotechnology; Ang I, cat#xy-E12541, X-Y Biotechnology; Ang II, cat#xy-R1430c, X-Y Biotechnology; Ang (1–7), cat#xy-Ang1-7-Ra, X-Y Biotechnology; TNF-α, cat#GM1149, Servicebio, Shanghai, China; IL-6, cat#GM1154, Servicebio] according to the manufacturer’s instructions. […]

p-IKB-α = experiment: phosphorylation of IKB-α in aorta of SHRs (Western blot); format: in vivo, rat; conditions: oral 14 days
Description: as §1, with “catheter. In chronic experiments, the animals were randomly assigned into five groups: vehicle (5% Tween 80–0.9% salt solution, n = 6), captopril group (5 mg kg^−1 body weight, n = 6), low-dose group (3 mg kg^−1 body weight, n = 6), medium-dose group (10 mg kg^−1 body weight, n = 6), and high-dose group (30 mg kg^−1 body weight, n = 6). Oral administration with drug or 5% Tween 80–0.9% salt solution was carried out once a day, and continued for 14 days.” for “catheter.”
The cell samples and tissue sample were collected and placed in ice rapidly. […] Protein concentration in cell lysates was measured using a Bio-Rad DC Protein Assay Kit […]. […]

hrACE2 = hrACE2 (Homo sapiens, UniProt Q9BYF1); experiment: SensoLyte390 ACE2 activity assay (enzyme kinetics, cell-free); format: biochemical; conditions: 37°C, 30 min, read-out: EC50 (ACE2 activity, excitatory effect)
Procedure: ACE and ACE2 activities were measured using the ACE activity assay kit and SensoLyte390 ACE2 activity assay kit (Anaspec, Fremont, CA, United States), respectively, according to the manufacturer’s instructions with some modifications. Briefly, rhACE solution dissolved in deionized water was used for analysis. ACE activity was measured in a reaction system with 50 μl of the sample and 50 μl of the ACE substrate solution with or without BAC (10^–4 to 10^–2 μM). ACE2 activity was assayed in the same manner as ACE activity. All assays were performed every 10 s for 30 min at 37°C using a Varioskan LUX fluorescence microplate reader (Thermo Fisher Scientific, Waltham, MA, United States). The autofluorescence value in each assay was subtracted from the measured values to generate the final results. The relative fluorescence unit of each sample was normalized to the corresponding total protein concentration, which was measured using a Pierce BCA protein assay kit (Thermo Fisher Scientific).

thoracic aorta = experiment: vascular function: Ang I pre-constricted isolated thoracic aorta; conditions: isolated aorta of SD rat, Ang I 10^–2 μM
Procedure: Endothelium-dependent vasorelaxation using aorta was evaluated as previously described ([Liao et al., 2019]). Briefly, after euthanizing the SD rat with sodium pentobarbital (100 mg kg^−1, i.p.) administration in combination with isoflurane inhalation, thoracic aorta (diameter: 150–250 μm, length: 2 mm) was mounted on two tungsten wires and attached to a tension sensor system (ADInstruments). After balancing for 2 h in Krebs’ solution at 37°C, arteries were exposed to 10 µM of phenylephrine (PE, Sigma-Aldrich, St. Louis, MO, United States) twice, followed by a single dose of acetylcholine (Ach, 3 μm, Sigma-Aldrich, St. Louis, MO, United States) to evaluate the integrity of the vessel. Afterward, the vessel was pre-constricted to maximum using AngI (Sigma-Aldrich) at 10^–2 μM and then treated with a series concentration of BAC or A779 (Sigma-Aldrich) or captopril at 10^–6 to 10^–1 μM. Lastly, a cumulative concentration response curve to BAC with A779 (at 10^–2 μM) was performed to assess the endothelium-dependent vasorelaxation.

Sequence of hrACE2 (Q9BYF1 18-805): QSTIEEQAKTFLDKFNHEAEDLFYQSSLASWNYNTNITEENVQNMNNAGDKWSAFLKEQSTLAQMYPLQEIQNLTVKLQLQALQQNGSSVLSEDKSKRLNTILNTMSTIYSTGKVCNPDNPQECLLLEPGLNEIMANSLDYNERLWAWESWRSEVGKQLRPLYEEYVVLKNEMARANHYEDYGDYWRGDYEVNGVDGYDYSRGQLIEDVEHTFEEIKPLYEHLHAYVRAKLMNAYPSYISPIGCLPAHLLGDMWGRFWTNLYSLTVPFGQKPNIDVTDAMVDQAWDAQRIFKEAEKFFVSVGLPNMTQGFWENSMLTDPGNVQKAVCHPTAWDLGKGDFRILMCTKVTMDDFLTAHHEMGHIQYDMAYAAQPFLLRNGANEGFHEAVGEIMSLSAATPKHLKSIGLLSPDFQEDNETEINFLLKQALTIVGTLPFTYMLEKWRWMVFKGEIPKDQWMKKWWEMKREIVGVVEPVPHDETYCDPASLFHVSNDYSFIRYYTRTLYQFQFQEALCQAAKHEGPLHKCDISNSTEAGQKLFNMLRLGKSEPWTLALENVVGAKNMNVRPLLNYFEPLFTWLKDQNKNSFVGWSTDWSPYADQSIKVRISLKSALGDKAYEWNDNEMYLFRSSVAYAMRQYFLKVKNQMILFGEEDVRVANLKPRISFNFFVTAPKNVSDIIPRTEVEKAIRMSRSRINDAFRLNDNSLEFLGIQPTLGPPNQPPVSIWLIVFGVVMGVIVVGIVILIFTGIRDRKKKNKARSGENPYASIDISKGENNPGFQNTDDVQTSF

## CCN1CC2(COC)C(O)CC(OC)C34C5CC6(O)C(OC)C(O)C(O)(C5C6OC(=O)c5ccccc5)C(C(OC)C23)C14 (stereo not drawn) [BAC, Benzoylaconitine]
Total NO
  total NO level in serum: increase NO level
ACE
  level of ACE in blood: decreased
p-IKB-α
  phosphorylation of IKB-α: downregulated
hrACE2
  EC50: 1500 nM
Thoracic aorta; 10^–6 to 10^–1 μM
  Ang I-induced vascular constriction: attenuate
Thoracic aorta; with A779
  attenuation of Ang I-induced vascular constriction in presence of Mas inhibitor A779: abolished
